From patent US20240182531A1, “KV1.3 Blockers” (priority 2021, published 2024)
Where a SMILES comes first, the peptide text is derived from it. Bridges are numbered along the chain shown (N, C = ends). [ ]: non-standard residue; d: D form. Nle = CCCC[C@H](N)C(=O)O

Experiments:
[1] = biological target: T1, human Kv1.2 (Homo sapiens, UniProt P16389); assay: cell-based; details: ratio of patch clamp IC50 values
T1 construct: expressed in transfected cells; host or cells: CHO

[2] = biological target: Rat whole blood (Rattus norvegicus, UniProt P15384); assay type: cell-based; details: IL-17A release, thapsigargin, 24 Hr, at least 2 replicates
[3] = biological target: T2, human Kv1.6 (Homo sapiens, UniProt P17658); assay: cell-based; details: ratio of patch clamp IC50 values
T2 construct: expressed in transfected cells; host or cells: CHO

[4] = biological target: T3, human Kv1.1 (Homo sapiens, UniProt Q09470); assay: cell-based; details: ratio of patch clamp IC50 values
T3 construct: expressed in transfected cells; host or cells: CHO
T3 sequence (Q09470 whole entry): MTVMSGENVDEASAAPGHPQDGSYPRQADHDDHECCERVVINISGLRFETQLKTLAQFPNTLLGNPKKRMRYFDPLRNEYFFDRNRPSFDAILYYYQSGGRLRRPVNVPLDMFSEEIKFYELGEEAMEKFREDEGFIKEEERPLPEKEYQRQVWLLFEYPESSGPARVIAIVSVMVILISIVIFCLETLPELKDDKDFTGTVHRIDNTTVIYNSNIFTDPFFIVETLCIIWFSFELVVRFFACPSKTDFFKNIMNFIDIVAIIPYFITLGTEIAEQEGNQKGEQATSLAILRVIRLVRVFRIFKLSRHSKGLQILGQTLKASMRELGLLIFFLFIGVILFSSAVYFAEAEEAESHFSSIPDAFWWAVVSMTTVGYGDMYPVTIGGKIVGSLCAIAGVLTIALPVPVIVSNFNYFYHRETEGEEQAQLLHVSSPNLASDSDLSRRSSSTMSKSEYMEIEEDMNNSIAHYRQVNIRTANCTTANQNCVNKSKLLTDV

T2 sequence (P17658 whole entry): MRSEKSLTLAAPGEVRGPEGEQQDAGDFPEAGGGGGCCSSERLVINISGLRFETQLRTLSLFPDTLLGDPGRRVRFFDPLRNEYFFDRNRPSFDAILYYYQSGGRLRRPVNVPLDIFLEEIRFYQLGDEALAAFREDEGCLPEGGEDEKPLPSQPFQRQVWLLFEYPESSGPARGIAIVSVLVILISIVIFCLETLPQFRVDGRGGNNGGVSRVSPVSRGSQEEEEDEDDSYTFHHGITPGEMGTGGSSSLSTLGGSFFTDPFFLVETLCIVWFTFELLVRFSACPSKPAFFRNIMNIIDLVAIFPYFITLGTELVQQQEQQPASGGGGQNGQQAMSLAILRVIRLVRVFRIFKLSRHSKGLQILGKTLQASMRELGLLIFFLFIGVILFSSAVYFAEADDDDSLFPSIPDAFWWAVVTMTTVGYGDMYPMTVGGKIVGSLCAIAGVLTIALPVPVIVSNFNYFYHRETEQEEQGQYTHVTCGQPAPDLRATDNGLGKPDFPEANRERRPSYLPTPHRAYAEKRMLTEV
T1 sequence (P16389 whole entry): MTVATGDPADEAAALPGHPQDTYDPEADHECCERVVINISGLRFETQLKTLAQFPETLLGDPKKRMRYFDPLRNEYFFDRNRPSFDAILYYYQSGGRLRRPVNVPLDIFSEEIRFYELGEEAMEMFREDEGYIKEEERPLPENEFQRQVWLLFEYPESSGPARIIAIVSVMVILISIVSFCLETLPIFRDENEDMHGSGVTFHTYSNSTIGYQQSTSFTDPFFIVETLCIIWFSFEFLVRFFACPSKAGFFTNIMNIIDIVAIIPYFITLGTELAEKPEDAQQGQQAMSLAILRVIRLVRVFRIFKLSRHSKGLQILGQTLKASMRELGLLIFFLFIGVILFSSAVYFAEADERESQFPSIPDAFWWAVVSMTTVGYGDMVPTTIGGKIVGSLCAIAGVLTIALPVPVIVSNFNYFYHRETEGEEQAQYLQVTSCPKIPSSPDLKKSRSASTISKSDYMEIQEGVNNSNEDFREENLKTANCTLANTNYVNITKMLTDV
Chain of Rat whole blood (P15384 whole entry): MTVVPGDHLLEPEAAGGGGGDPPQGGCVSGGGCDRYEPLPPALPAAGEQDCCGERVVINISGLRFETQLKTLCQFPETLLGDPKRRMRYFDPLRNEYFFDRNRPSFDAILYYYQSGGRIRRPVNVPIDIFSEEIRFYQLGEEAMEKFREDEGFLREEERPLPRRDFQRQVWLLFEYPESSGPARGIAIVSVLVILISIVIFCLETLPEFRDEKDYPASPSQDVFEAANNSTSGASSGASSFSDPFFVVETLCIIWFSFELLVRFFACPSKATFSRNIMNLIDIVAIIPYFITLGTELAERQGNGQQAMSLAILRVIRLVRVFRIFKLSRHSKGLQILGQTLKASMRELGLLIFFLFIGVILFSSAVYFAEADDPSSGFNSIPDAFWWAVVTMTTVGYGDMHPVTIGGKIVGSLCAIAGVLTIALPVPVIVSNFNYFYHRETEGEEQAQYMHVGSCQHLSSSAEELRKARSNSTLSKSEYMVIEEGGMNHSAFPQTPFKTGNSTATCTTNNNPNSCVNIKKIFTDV

Structure (SMILES): CCCC[C@@H]1NC(=O)[C@@H]2CSSC[C@H](NC(=O)[C@H](CCCNC(=N)N)NC(=O)[C@H](CCCC)NC(=O)[C@H](CC(=O)O)NC(=O)[C@H](CCCC)NC(=O)[C@@H](N)CC(N)=O)C(=O)N[C@@H](CO)C(=O)N[C@@H](C)C(=O)N[C@@H](CO)C(=O)N[C@@H](C(C)C)C(=O)N[C@@H](CCC(=O)O)C(=O)N[C@H]3CSSC[C@H](NC(=O)[C@H](CCCCN)NC(=O)[C@H](CCCCN)NC(=O)[C@H](CC(N)=O)NC1=O)C(=O)N[C@@H](CCCCN)C(=O)N[C@H](C(=O)N[C@@H](Cc1ccc(O)cc1)C(=O)N1CCC[C@H]1C(=O)N[C@@H](CCCNC(=N)N)C(N)=O)CSSC[C@H](NC(=O)[C@H](CCCCN)NC(=O)[C@H](CCC(N)=O)NC(=O)[C@H](CCCCN)NC3=O)C(=O)N[C@@H](CCCCN)C(=O)N[C@@H](C)C(=O)N[C@@H]([C@@H](C)CC)C(=O)NCC(=O)N[C@@H](CO)C(=O)N[C@@H]([C@@H](C)CC)C(=O)N[C@@H](Cc1ccccc1)C(=O)NCC(=O)N[C@@H](CCCCN)C(=O)N2 [compound 53] (H-N[Nle]D[Nle]RCSASVECKQKCKAIGSIFGKC[Nle]NKKCKCYPR-NH2; disulfide 6-26, 12-31, 16-33)
- Selectivity ratio Kv1.2/Kv1.3 [1]: 123
- IC50 [2]: 1 nM
- Selectivity ratio Kv1.6/Kv1.3 [3]: 707
- Selectivity ratio Kv1.1/Kv1.3 [4]: >2200

Structure (SMILES): CC[C@H](C)[C@@H]1NC(=O)[C@H](C)NC(=O)[C@H](CCCCN)NC(=O)[C@H](CC(C)C)NC(=O)[C@@H]2CSSC[C@@H](C(=O)N[C@@H](Cc3ccc(O)cc3)C(=O)N3CCC[C@H]3C(=O)N[C@@H](CCCNC(=N)N)C(N)=O)NC(=O)[C@H](CCCCN)NC(=O)[C@@H]3CSSC[C@H](NC(=O)[C@H](CCC(=O)O)NC(=O)[C@H](C(C)C)NC(=O)[C@H](CO)NC(=O)[C@H](C)NC(=O)[C@H](CO)NC(=O)[C@@H](NC(=O)[C@H](CCCNC(=N)N)NC(=O)[C@H](CCSC)NC(=O)[C@H](CC(=O)O)NC(=O)[C@H](CCSC)NC(=O)[C@@H](N)CC(N)=O)CSSC[C@H](NC(=O)[C@H](CCCCN)NC(=O)CNC(=O)[C@H](Cc4ccccc4)NC(=O)[C@H]([C@@H](C)CC)NC(=O)[C@H](CO)NC(=O)CNC1=O)C(=O)N[C@@H](CCSC)C(=O)N[C@@H](CC(N)=O)C(=O)NCC(=O)N[C@@H](CCCCN)C(=O)N3)C(=O)N[C@@H](CCCCN)C(=O)N[C@@H](CCC(N)=O)C(=O)N[C@@H](CCCCN)C(=O)N2 [compound 40] (H-NMDMRCSASVECKQKCLKAIGSIFGKCMNGKCKCYPR-NH2; disulfide 6-27, 12-32, 16-34)
- Selectivity ratio Kv1.2/Kv1.3 [1]: 1422
- IC50 [2]: 1.2 nM
- Selectivity ratio Kv1.6/Kv1.3 [3]: >9700
- Selectivity ratio Kv1.1/Kv1.3 [4]: >9700

Structure (SMILES): CC[C@H](C)[C@@H]1NC(=O)[C@H](C)NC(=O)[C@H](CCCCN)NC(=O)[C@H](CC(C)C)NC(=O)[C@@H]2CSSC[C@@H](C(=O)N[C@@H](Cc3ccc(O)cc3)C(=O)N3CCC[C@H]3C(=O)N[C@@H](CCCNC(=N)N)C(N)=O)NC(=O)[C@H](CCCCN)NC(=O)[C@@H]3CSSC[C@H](NC(=O)[C@H](CCC(=O)O)NC(=O)[C@H](C(C)C)NC(=O)[C@H](CO)NC(=O)[C@H](C)NC(=O)[C@H](CO)NC(=O)[C@@H](NC(=O)[C@H](CCCNC(=N)N)NC(=O)[C@H](CCSC)NC(=O)[C@H](CC(=O)O)NC(=O)[C@H](CCSC)NC(=O)[C@@H](N)CC(N)=O)CSSC[C@H](NC(=O)[C@H](CCCCN)NC(=O)CNC(=O)[C@H](Cc4ccccc4)NC(=O)[C@H]([C@@H](C)CC)NC(=O)[C@H](CO)NC(=O)CNC1=O)C(=O)N[C@@H](CCSC)C(=O)N[C@@H](CC(N)=O)C(=O)N[C@@H](CCCCN)C(=O)N[C@@H](CCCCN)C(=O)N3)C(=O)N[C@@H](CCCCN)C(=O)N[C@@H](CCC(=O)O)C(=O)N[C@@H](CCCCN)C(=O)N2 [compound 35] (H-NMDMRCSASVECKEKCLKAIGSIFGKCMNKKCKCYPR-NH2; disulfide 6-27, 12-32, 16-34)
- Selectivity ratio Kv1.2/Kv1.3 [1]: 648
- IC50 [2]: 0.86 nM
- Selectivity ratio Kv1.6/Kv1.3 [3]: >10800
- Selectivity ratio Kv1.1/Kv1.3 [4]: >10800

Structure (SMILES): CCCC[C@@H]1NC(=O)[C@@H]2CSSC[C@H](NC(=O)[C@H](CCCNC(=N)N)NC(=O)[C@H](CCCC)NC(=O)[C@H](CC(=O)O)NC(=O)[C@H](CCCC)NC(=O)[C@@H](N)CC(N)=O)C(=O)N[C@@H](CO)C(=O)N[C@@H](C)C(=O)N[C@@H](CO)C(=O)N[C@@H](CCCCN)C(=O)N[C@@H](CCC(=O)O)C(=O)N[C@H]3CSSC[C@H](NC(=O)[C@H](CCCCN)NC(=O)[C@H](CCCCN)NC(=O)[C@H](CC(N)=O)NC1=O)C(=O)N[C@@H](CCCCN)C(=O)N[C@H](C(=O)N[C@@H](Cc1ccc(O)cc1)C(=O)N1CCC[C@H]1C(=O)N[C@@H](CCCNC(=N)N)C(N)=O)CSSC[C@H](NC(=O)[C@H](CCCCN)NC(=O)[C@H](CCC(N)=O)NC(=O)[C@H](CCCCN)NC3=O)C(=O)N[C@@H](CC(C)C)C(=O)N[C@@H](CCCCN)C(=O)N[C@@H](C)C(=O)N[C@@H]([C@@H](C)CC)C(=O)NCC(=O)N[C@@H](CO)C(=O)N[C@@H]([C@@H](C)CC)C(=O)N[C@@H](Cc1ccccc1)C(=O)NCC(=O)N[C@@H](CCCCN)C(=O)N2 [compound 63] (H-N[Nle]D[Nle]RCSASKECKQKCLKAIGSIFGKC[Nle]NKKCKCYPR-NH2; disulfide 6-27, 12-32, 16-34)
- Selectivity ratio Kv1.2/Kv1.3 [1]: 587
- IC50 [2]: 0.68 nM
- Selectivity ratio Kv1.6/Kv1.3 [3]: 3929
- Selectivity ratio Kv1.1/Kv1.3 [4]: >9600

Structure (SMILES): CCCC[C@@H]1NC(=O)[C@@H]2CSSC[C@H](NC(=O)[C@@H](N)CCCNC(=N)N)C(=O)N[C@@H](CO)C(=O)N[C@@H](C)C(=O)N[C@@H](CO)C(=O)N[C@@H](C(C)C)C(=O)N[C@@H](CCC(=O)O)C(=O)N[C@H]3CSSC[C@H](NC(=O)[C@H](CCCCN)NC(=O)[C@H](CCCCN)NC(=O)[C@H](CC(N)=O)NC1=O)C(=O)N[C@@H](CCCCN)C(=O)N[C@H](C(=O)N[C@@H](Cc1ccc(O)cc1)C(=O)N1CCC[C@H]1C(=O)N[C@@H](CCCNC(=N)N)C(N)=O)CSSC[C@H](NC(=O)[C@H](CCCCN)NC(=O)[C@H](CCC(N)=O)NC(=O)[C@H](CCCCN)NC3=O)C(=O)N[C@@H](CC(C)C)C(=O)N[C@@H](CCCCN)C(=O)N[C@@H](C)C(=O)N[C@@H]([C@@H](C)CC)C(=O)NCC(=O)N[C@@H](CO)C(=O)N[C@@H]([C@@H](C)CC)C(=O)N[C@@H](Cc1ccccc1)C(=O)NCC(=O)N[C@@H](CCCCN)C(=O)N2 [compound 100] (H-RCSASVECKQKCLKAIGSIFGKC[Nle]NKKCKCYPR-NH2; disulfide 2-23, 8-28, 12-30)
- Selectivity ratio Kv1.2/Kv1.3 [1]: 708
- IC50 [2]: 0.52 nM
- Selectivity ratio Kv1.6/Kv1.3 [3]: 3290
- Selectivity ratio Kv1.1/Kv1.3 [4]: >7600

Structure (SMILES): CC[C@H](C)[C@@H]1NC(=O)[C@H](C)NC(=O)[C@H](CCCCN)NC(=O)[C@H](CC(C)C)NC(=O)[C@@H]2CSSC[C@@H](C(=O)N[C@@H](Cc3ccc(O)cc3)C(=O)N3CCC[C@H]3C(=O)N[C@@H](CCCNC(=N)N)C(N)=O)NC(=O)[C@H](CCCCN)NC(=O)[C@@H]3CSSC[C@H](NC(=O)[C@H](CCC(=O)O)NC(=O)[C@H](C(C)C)NC(=O)[C@H](CO)NC(=O)[C@H](C)NC(=O)[C@H](CO)NC(=O)[C@@H](NC(=O)[C@H](CCCNC(=N)N)NC(=O)[C@H](CCSC)NC(=O)[C@H](CC(=O)O)NC(=O)[C@H](CCSC)NC(=O)[C@@H](N)CC(N)=O)CSSC[C@H](NC(=O)[C@H](CCCCN)NC(=O)CNC(=O)[C@H](Cc4ccccc4)NC(=O)[C@H]([C@@H](C)CC)NC(=O)[C@H](CO)NC(=O)[C@H](CCC(=O)O)NC1=O)C(=O)N[C@@H](CCSC)C(=O)N[C@@H](CC(N)=O)C(=O)N[C@@H](CCCCN)C(=O)N[C@@H](CCCCN)C(=O)N3)C(=O)N[C@@H](CCCCN)C(=O)N[C@@H](CCC(N)=O)C(=O)N[C@@H](CCCCN)C(=O)N2 [compound 27] (H-NMDMRCSASVECKQKCLKAIESIFGKCMNKKCKCYPR-NH2; disulfide 6-27, 12-32, 16-34)
- Selectivity ratio Kv1.2/Kv1.3 [1]: 615
- IC50 [2]: 2.8 nM
- Selectivity ratio Kv1.6/Kv1.3 [3]: >10200
- Selectivity ratio Kv1.1/Kv1.3 [4]: >10200

Structure (SMILES): CCCC[C@@H]1NC(=O)[C@@H]2CSSC[C@H](NC(C)=O)C(=O)N[C@@H](CO)C(=O)N[C@@H](C)C(=O)N[C@@H](CO)C(=O)N[C@@H](C(C)C)C(=O)N[C@@H](CCC(=O)O)C(=O)N[C@H]3CSSC[C@H](NC(=O)[C@H](CCCCN)NC(=O)[C@H](CCCCN)NC(=O)[C@H](CC(N)=O)NC1=O)C(=O)N[C@@H](CCCCN)C(=O)N[C@H](C(=O)N[C@@H](Cc1ccc(O)cc1)C(=O)N1CCC[C@H]1C(=O)N[C@@H](CCCNC(=N)N)C(N)=O)CSSC[C@H](NC(=O)[C@H](CCCCN)NC(=O)[C@H](CCC(N)=O)NC(=O)[C@H](CCCCN)NC3=O)C(=O)N[C@@H](CC(C)C)C(=O)N[C@@H](CCCCN)C(=O)N[C@@H](C)C(=O)N[C@@H]([C@@H](C)CC)C(=O)NCC(=O)N[C@@H](CO)C(=O)N[C@@H]([C@@H](C)CC)C(=O)N[C@@H](Cc1ccccc1)C(=O)NCC(=O)N[C@@H](CCCCN)C(=O)N2 [compound 99] (Ac-CSASVECKQKCLKAIGSIFGKC[Nle]NKKCKCYPR-NH2; disulfide 1-22, 7-27, 11-29)
- Selectivity ratio Kv1.2/Kv1.3 [1]: 1591
- IC50 [2]: 0.88 nM
- Selectivity ratio Kv1.6/Kv1.3 [3]: >12400
- Selectivity ratio Kv1.1/Kv1.3 [4]: >12400
